Biological target: T1, SAMHD1 (Homo sapiens, UniProt Q9Y3Z3)
T1 construct: wt-SAMHD1(1–626)
Assay: coupled enzyme assay (Ppx1/MDCC-PBP), competitive inhibition of TTP hydrolysis
Format: biochemical

T1 sequence (Q9Y3Z3 whole entry): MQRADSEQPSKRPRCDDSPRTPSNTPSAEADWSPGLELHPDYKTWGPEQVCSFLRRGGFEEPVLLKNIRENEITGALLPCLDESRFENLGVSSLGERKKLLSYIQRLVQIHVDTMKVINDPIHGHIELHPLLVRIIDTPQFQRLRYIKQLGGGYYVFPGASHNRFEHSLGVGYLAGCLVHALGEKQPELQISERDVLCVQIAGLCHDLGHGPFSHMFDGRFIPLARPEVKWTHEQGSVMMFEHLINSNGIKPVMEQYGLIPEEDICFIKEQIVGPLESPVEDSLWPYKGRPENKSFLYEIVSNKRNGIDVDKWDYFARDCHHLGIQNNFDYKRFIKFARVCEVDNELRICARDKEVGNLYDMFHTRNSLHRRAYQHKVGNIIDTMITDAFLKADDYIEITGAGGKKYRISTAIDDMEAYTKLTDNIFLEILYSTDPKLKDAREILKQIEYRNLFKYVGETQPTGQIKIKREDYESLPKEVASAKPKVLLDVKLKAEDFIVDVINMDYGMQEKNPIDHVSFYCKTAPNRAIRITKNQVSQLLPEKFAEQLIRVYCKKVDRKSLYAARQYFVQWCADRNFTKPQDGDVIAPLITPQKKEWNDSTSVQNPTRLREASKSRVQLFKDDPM

| SMILES | Ki [µM] |
| --- | --- |
| Cc1cn([C@H]2C[C@H](O)[C@@H](CO[P@](O)(=S)OP(=O)(O)OP(=O)(O)O)O2)c(=O)[nH]c1=O [Sp-TTPαS] | 46 ± 2 |
| Nc1ncnc2c1ncn2[C@H]1C[C@H](O)[C@@H](CO[P@](O)(=S)OP(=O)(O)OP(=O)(O)O)O1 [Sp-dATPαS] | 117 ± 7 |
| Nc1ccn([C@H]2C[C@H](O)[C@@H](CO[P@](O)(=S)OP(=O)(O)OP(=O)(O)O)O2)c(=O)n1 [Sp-dCTPαS] | 6.3 ± 0.4 |
| Nc1nc2c(ncn2[C@H]2C[C@H](O)[C@@H](CO[P@](O)(=S)OP(=O)(O)OP(=O)(O)O)O2)c(=O)[nH]1 [Sp-dGTPαS] | 0.82 ± 0.05 |
